According to paper PMC11727701 (Drug Design, Development and Therapy, 2025):

Target: NaV1.5 (Homo sapiens, UniProt Q14524)
Experiment: manual whole-cell patch clamp in CHL cells stably expressing SCN5A
Format: cell-based

Chain of NaV1.5 (Q14524 whole entry): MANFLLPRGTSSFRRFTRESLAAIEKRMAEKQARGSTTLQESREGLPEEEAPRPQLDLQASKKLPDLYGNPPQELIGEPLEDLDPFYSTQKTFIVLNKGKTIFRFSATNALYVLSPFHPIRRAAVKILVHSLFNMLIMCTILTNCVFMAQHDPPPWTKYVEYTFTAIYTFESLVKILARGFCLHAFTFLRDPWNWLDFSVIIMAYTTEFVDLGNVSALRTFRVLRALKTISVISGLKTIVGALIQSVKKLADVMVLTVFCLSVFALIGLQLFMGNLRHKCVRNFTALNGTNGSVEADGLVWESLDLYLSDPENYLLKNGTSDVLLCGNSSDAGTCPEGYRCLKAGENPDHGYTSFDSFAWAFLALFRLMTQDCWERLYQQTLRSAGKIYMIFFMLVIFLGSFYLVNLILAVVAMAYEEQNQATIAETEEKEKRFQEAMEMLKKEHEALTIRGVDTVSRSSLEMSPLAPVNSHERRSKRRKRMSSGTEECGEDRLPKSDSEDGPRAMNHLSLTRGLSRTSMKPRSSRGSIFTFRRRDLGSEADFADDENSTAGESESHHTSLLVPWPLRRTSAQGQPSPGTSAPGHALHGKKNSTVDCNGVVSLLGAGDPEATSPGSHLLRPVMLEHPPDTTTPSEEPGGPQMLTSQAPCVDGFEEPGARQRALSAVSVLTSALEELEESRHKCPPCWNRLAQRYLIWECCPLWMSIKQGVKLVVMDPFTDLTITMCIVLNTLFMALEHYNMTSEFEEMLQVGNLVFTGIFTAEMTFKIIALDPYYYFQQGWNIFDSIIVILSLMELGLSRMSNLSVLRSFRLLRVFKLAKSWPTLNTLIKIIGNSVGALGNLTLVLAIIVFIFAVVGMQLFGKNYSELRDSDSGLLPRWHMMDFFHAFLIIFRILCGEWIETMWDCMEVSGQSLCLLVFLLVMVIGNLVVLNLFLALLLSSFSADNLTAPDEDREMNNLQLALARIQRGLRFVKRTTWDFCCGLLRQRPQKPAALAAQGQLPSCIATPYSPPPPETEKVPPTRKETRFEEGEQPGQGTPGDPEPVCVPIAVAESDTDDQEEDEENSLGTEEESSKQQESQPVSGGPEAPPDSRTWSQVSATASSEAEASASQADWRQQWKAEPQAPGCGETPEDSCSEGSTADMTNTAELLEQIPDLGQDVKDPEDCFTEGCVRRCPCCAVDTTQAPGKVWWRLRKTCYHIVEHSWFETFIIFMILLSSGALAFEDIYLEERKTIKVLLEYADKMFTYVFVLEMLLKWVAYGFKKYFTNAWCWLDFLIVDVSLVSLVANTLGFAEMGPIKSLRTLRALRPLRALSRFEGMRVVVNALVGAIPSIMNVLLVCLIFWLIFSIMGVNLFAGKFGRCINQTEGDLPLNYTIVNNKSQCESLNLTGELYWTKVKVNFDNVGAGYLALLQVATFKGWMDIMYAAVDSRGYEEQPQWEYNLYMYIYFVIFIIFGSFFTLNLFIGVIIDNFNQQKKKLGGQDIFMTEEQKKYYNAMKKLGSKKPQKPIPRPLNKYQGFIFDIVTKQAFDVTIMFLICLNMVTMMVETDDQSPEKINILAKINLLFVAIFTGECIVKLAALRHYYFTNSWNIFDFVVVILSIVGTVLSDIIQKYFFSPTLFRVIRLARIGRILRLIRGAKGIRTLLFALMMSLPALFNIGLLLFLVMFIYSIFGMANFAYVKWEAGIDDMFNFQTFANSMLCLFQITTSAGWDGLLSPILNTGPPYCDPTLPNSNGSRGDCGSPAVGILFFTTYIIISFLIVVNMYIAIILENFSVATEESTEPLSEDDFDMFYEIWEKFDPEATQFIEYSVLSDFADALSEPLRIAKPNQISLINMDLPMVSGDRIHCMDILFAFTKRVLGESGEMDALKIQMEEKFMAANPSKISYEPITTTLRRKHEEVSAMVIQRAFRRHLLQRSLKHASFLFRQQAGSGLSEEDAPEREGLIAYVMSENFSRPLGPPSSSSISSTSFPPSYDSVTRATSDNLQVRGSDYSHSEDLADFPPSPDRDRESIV

CCCCCCCCCCCC(=O)O [LA, lauric acid]
IC50: 27.4 ± 12.8 µM
